Legend:
[1] = eLogD, distribution coefficient (LogD) measured by HPLC; type: physicochemical
Description: (§1) In the context of drug discovery, the distribution coefficient of a compound strongly affects how effectively the drug can reach its intended target, as well as efficacy and pharmacokinetic properties. […] To understand the effect of oxetane sulfides on this key parameter, LogD was measured for compounds 21, 2 d, and 17 d. Replacing the thioester functionality with the oxetane sulfide had the positive effect of lowering the LogD by approximately 1 Log unit (Figure 2).
(§2) Figure 2 Comparison of physicochemical parameters. eLogD=distribution coefficient (LogD) measured by HPLC. HLM=Clearance in liver microsomes; RRCK=Cell membrane permeability. TEXT PRINTED IN THE PICTURE: 21: eLogD 4.7 | 2d: eLogD 3.8 | 17d: eLogD 2.1 | 20: HLM: 7.0 μL/min/mg; RRCK: 0.1 10^-6 cm/s | 22: HLM: 7.0 μL/min/mg; RRCK: 1.3 10^-6 cm/s DOUBTS OF THE COPYIST ABOUT THIS PICTURE: 2d, eLogD: 3.8 or 3.6 (small print) / 22, RRCK: 1.3 or 1.5 or 1.8 (small print) / 20 and 22, RRCK: exponent -6 is printed very small and could be -5 or -8

[2] = RRCK cell membrane permeability; type: in vitro ADME; conditions: dog, MDCK
Description: as §1, §2

[3] = system: RRCK; experiment: RRCK cell membrane permeability; type: in vitro ADME; conditions: 20 compared with methane analogue 22, in words
Description: as §1, §2

[4] = HLM, clearance in liver microsomes; type: in vitro ADME, human; conditions: for clearance profile by human liver microsomes, comparison: 20 compared with 22, in words; for microsomal CLint: human, human liver microsomes
Description: as §1, §2

SMILES	chromatographic logD [1]	melting point [°C]	Papp [2] [×10⁻⁶ cm/s]	clearance profile by human liver microsomes, comparison [4]	microsomal CLint [4] [µL/min/mg]	cell permeability compared with analogue [3]
COc1ccc(SC2(c3ccc(OC)cc3)COC2)cc1 [2d]	3.8	113 to 116				
c1ccc(SC2(c3ccccc3)CCC2)cc1 [13c]		46 to 48				
COc1ccc(C2(S(=O)(=O)c3ccc(OC)cc3)COC2)cc1 [17d]	2.1	158 to 160				

Now from value to molecule, other results behind:

chromatographic logD [1]	melting point [°C]	Papp [2] [×10⁻⁶ cm/s]	clearance profile by human liver microsomes, comparison [4]	microsomal CLint [4] [µL/min/mg]	SMILES	cell permeability compared with analogue [3]
		0.1	determined to be the same	7	COc1ccc(C2(SCC(N)C(=O)O)COC2)cc1 (stereo not shown) [compound 20]	slightly lower cell permeability than the corresponding methane analogue 22
4.7					COc1ccc(SC(=O)c2ccc(OC)cc2)cc1 [compound 21]	
		1.3	determined to be the same	7	COc1ccc(CSCC(N)C(=O)O)cc1 (stereo not shown) [compound 22]	
